Measured values published in a compilation of properties of binary mixtures (doi:10.1016/j.molliq.2017.09.070).

Assay: xn = mol fraction of the nth substance listed
Conditions: 100 kPa; for viscosity: 298.1 K

CC1COC(=O)O1 (stereo unspecified) + CCCC[n+]1ccn(C)c1.O=S(=O)([N-]S(=O)(=O)C(F)(F)F)C(F)(F)F
Conditions	viscosity [mPa·s]
x2 = 0.2	7.5
x2 = 0.4	11.9
x2 = 0.6	20
x2 = 0.8	31.4
x2 = 0.9	35.4

CCCC[N+]1(C)CCCC1.O=S(=O)([N-]S(=O)(=O)C(F)(F)F)C(F)(F)F + CC1COC(=O)O1
Conditions	electrical conductivity [S/m]
296.9 K, x1 = 0.4	0.781
297.1 K, x1 = 0.6	0.543
297.1 K, x1 = 0.9	0.347
297.3 K, x1 = 0.2	1
299.8 K, x1 = 0.9	0.366
299.9 K, x1 = 0.2	1.02
299.9 K, x1 = 0.6	0.571
302.5 K, x1 = 0.2	1.04
302.5 K, x1 = 0.4	0.835
302.6 K, x1 = 0.6	0.593
302.6 K, x1 = 0.8	0.444
302.6 K, x1 = 0.9	0.387
305.3 K, x1 = 0.4	0.864
305.4 K, x1 = 0.2	1.07
305.4 K, x1 = 0.6	0.615
305.4 K, x1 = 0.8	0.471
305.4 K, x1 = 0.9	0.417
307.9 K, x1 = 0.4	0.882
307.9 K, x1 = 0.8	0.501
308.1 K, x1 = 0.9	0.437
308.2 K, x1 = 0.6	0.639
308.4 K, x1 = 0.2	1.11
310.9 K, x1 = 0.4	0.901
310.9 K, x1 = 0.9	0.461
311.1 K, x1 = 0.2	1.13
311.1 K, x1 = 0.6	0.666
313.5 K, x1 = 0.9	0.487
313.7 K, x1 = 0.6	0.683
316.3 K, x1 = 0.4	0.963
316.3 K, x1 = 0.8	0.578
316.5 K, x1 = 0.6	0.704
316.5 K, x1 = 0.9	0.508
319 K, x1 = 0.4	0.988
319.2 K, x1 = 0.2	1.19
319.2 K, x1 = 0.8	0.603
319.2 K, x1 = 0.9	0.529
321.9 K, x1 = 0.4	1.01
322.1 K, x1 = 0.2	1.2
322.1 K, x1 = 0.8	0.628
322.3 K, x1 = 0.6	0.746
324.6 K, x1 = 0.2	1.22
324.7 K, x1 = 0.8	0.652
324.9 K, x1 = 0.4	1.02
324.9 K, x1 = 0.6	0.771
324.9 K, x1 = 0.9	0.59
327.2 K, x1 = 0.9	0.615
327.4 K, x1 = 0.2	1.24
327.4 K, x1 = 0.4	1.05
327.4 K, x1 = 0.8	0.677
330.1 K, x1 = 0.4	1.07
330.3 K, x1 = 0.6	0.811
330.4 K, x1 = 0.8	0.701
332.9 K, x1 = 0.8	0.721
333 K, x1 = 0.2	1.27
333 K, x1 = 0.4	1.09
333 K, x1 = 0.9	0.661
333.2 K, x1 = 0.6	0.828
335.5 K, x1 = 0.9	0.683
335.7 K, x1 = 0.2	1.3
335.9 K, x1 = 0.6	0.842
335.9 K, x1 = 0.8	0.74
336 K, x1 = 0.4	1.12
338.5 K, x1 = 0.4	1.13
338.5 K, x1 = 0.9	0.706
338.7 K, x1 = 0.6	0.864
341.4 K, x1 = 0.4	1.16
341.4 K, x1 = 0.9	0.734
341.6 K, x1 = 0.2	1.32
343.8 K, x1 = 0.8	0.804
344 K, x1 = 0.2	1.33
344 K, x1 = 0.4	1.16
344.2 K, x1 = 0.9	0.752
344.4 K, x1 = 0.6	0.908
347 K, x1 = 0.2	1.34
347 K, x1 = 0.6	0.935
347 K, x1 = 0.8	0.835
347 K, x1 = 0.9	0.781
349.5 K, x1 = 0.8	0.849
349.9 K, x1 = 0.2	1.36
349.9 K, x1 = 0.9	0.808
350.1 K, x1 = 0.6	0.951

Conditions	viscosity [mPa·s]
x1 = 0.2	5.5
x1 = 0.4	13.7
x1 = 0.6	29.8
x1 = 0.8	41.3
x1 = 0.9	48.1
